Series [1] has as its system carrageenin-induced oedema. Briefly: carrageenin-induced oedema test (anti-inflammatory activity). It is filed as in vivo, albino male Wistar rats. How it is done: This effect was evaluated by means of an experimental model reproducing acute inflammation: for this purpose the carrageenin- induced oedema test was employed following the method described by C.
Albino male Wistar rats weighing 140-160 g were caged for 10 days at 22±1° C. and given a balanced diet and water ad libitum. Eighteen hours before the experiment the animals were randomized into groups of ten and fasted but with free access to water. Each dose was tested in three groups of rats. Each compound was given either orally, by gavage, or parenterally--intraperitoneal injection--administering as follows:
controls: 0.5% carboxymethylcellulose suspension in physiological saline, 10 ml/kg
treated: suspension of the compounds to be tested in the same vehicle and at the same volume (10 ml/kg) used for the controls at the doses specified below.
One hour after administration of the compounds and vehicle, in order to provoke the oedema for determining the protective effect of the substances under examination, each rat received, by subcutaneous injection into the plantar surface of the left paw, 0.1 ml of 1% sterile carrageenin suspension.

The next series in a line: solubility. The series is classed as physicochemical.

The source of these data is patent publication US4882349A, “Pyrrolacetic amides having antiinflammatory activity” (priority 1982, dated 1989).

Structures are written as SMILES.

Turning to `COc1ccc2c(c1)c(CC(=O)O)c(C)n2C(=O)c1ccc(Cl)cc1` [Indomethacin, reference compound], the oedema % inhibition in series [1] (2.5 mg/Kg per os, 2 h) is given as 20.6%; in series [1] (2.5 mg/Kg per os, 4 h), 33.7%; in series [1] (2.5 mg/Kg per os, 6 h), 25.2%; in series [1] (2.5 mg/Kg per os, 24 h), 6.0%; in series [1] (2.5 mg/Kg per os, 48 h), 0.0%; in series [1] (2.5 mg/Kg per os, 72 h) it was 0.0%. Besides, the oedema % inhibition in series [1] (2.5 mg/Kg, Table IV (route not given), 2 h) is reported as 25.7%; in series [1] (2.5 mg/Kg, Table IV (route not given), 4 h), 38.0%; in series [1] (2.5 mg/Kg, Table IV (route not given), 6 h), 30.0%; in series [1] (2.5 mg/Kg, Table IV (route not given), 24 h), 5.0%; in series [1] (2.5 mg/Kg, Table IV (route not given), 48 h), 0.0%; in series [1] (2.5 mg/Kg, Table IV (route not given), 72 h) it was 0.0%. In addition, the oedema % inhibition in series [1] (5 mg/Kg per os, 2 h) is on record as 34.3%; in series [1] (5 mg/Kg per os, 4 h), 45.9%; in series [1] (5 mg/Kg per os, 6 h), 42.1%; in series [1] (5 mg/Kg per os, 24 h) it was 4.2%; in series [1] (5 mg/Kg per os, 48 h), 0.0%; in series [1] (5 mg/Kg per os, 72 h), 0.0%. Moreover, the oedema % inhibition came to 39.0% in series [1] (5 mg/Kg, Table IV (route not given), 2 h); 50.1% in series [1] (5 mg/Kg, Table IV (route not given), 4 h); 48.0% in series [1] (5 mg/Kg, Table IV (route not given), 6 h); 7.0% in series [1] (5 mg/Kg, Table IV (route not given), 24 h); 0.0% in series [1] (5 mg/Kg, Table IV (route not given), 48 h); 0.0% in series [1] (5 mg/Kg, Table IV (route not given), 72 h). Moreover, the oedema % inhibition in series [1] (10 mg/Kg per os, 2 h) amounted to 66.4%; in series [1] (10 mg/Kg per os, 4 h), 53.2%; in series [1] (10 mg/Kg per os, 6 h), 51.6%; in series [1] (10 mg/Kg per os, 24 h), 20.0%; in series [1] (10 mg/Kg per os, 48 h), 6.0%; in series [1] (10 mg/Kg per os, 72 h) it was 0.0%. For the same compound, the oedema % inhibition in series [1] (10 mg/Kg, Table IV (route not given), 2 h) amounted to 70.8%; in series [1] (10 mg/Kg, Table IV (route not given), 4 h), 66.6%; in series [1] (10 mg/Kg, Table IV (route not given), 6 h), 65.0%; in series [1] (10 mg/Kg, Table IV (route not given), 24 h), 16.0%; in series [1] (10 mg/Kg, Table IV (route not given), 48 h), 0.0%; in series [1] (10 mg/Kg, Table IV (route not given), 72 h), 0.0%.
Consider `CCOC(=O)CNC(=O)Cc1ccc(C(=O)c2ccc(C)cc2)n1C` [Compound 1-b, 1-methyl-5-p-toluoylpyrrole-2-acetamidoacetic acid ethyl ester], for which, in the series “solubility”, the Solubility entry is “soluble in the usual organic solvents”.
